Experimental data reported in patent publication US9763445B2, “Safened herbicidal compositions comprising a pyridine carboxylic acid herbicide” (Dow AgroSciences, LLC, priority 2014, dated 2017).

Key:
[1] = system: kochia (KCHSC); assay: Postemergence greenhouse trial, % visual injury on kochia; type: in vivo, Kochia scoparia; settings: KCHSC; for % visual injury, Ob: CQC-m 0 g/ha
Outline: (§1)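 Herbicide rates g ae/ha, safener (cloquintocet-mexyl) rates g ai/ha; spray carrier 1.5% v/v crop oil concentrate, 187 L/ha, 2nd–3rd leaf stage. Rating: visual % injury at 20-22 d.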

[2] = system: spring barley (HORVS); assay: Postemergence greenhouse trial, % visual injury on spring barley; type: in vivo, Hordeum vulgare; settings: HORVS
Outline: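 Greenhouse crops at second to third true leaf stage sprayed postemergence at 187 L/ha with herbicide (g ae/ha) plus safener (g ai/ha) in acetone/DMSO diluted into 1.5% v/v Agri-dex. Injury scored visually versus solvent-blank controls after 20-22 d, 0 (none) to 100% (complete kill); expected mixture effects by Colby's equation.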

[3] = system: lambsquarters (CHEAL); assay: Postemergence greenhouse trial, % visual injury on lambsquarters; type: in vivo, Chenopodium album; settings: CHEAL
Outline: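 Plants at second or third true leaf stage, greenhouse-grown (14 h photoperiod, ~23/22° C.), sprayed postemergence with compounds alone or with safener cloquintocet-mexyl in 1.5% v/v Agri-dex crop oil at 187 L/ha. Visual injury scored 0–100% versus solvent-blank controls after 20-22 d; expected mixture effects by Colby's equation.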

[4] = system: common poppy (PAPRH); assay: Postemergence greenhouse trial, % visual injury on common poppy; type: in vivo, Papaver rhoeas; settings: PAPRH; for % visual injury, Ob: CQC-m 0 g/ha
Outline: as §1

[5] = system: purple deadnettle (LAMPU); assay: Postemergence greenhouse trial, % visual injury on purple deadnettle; type: in vivo, Lamium purpureum; settings: LAMPU, CQC-m 0
Method: (§2) Seeds of the desired test plant species were planted in Sun Gro MetroMix® 306 planting mixture, which typically has a pH of 6.0 to 6.8 and an organic matter content of about 30 percent, in plastic pots with a surface area of 103.2 square centimeters (cm^2). When required to ensure good germination and healthy plants, a fungicide treatment and/or other chemical or physical treatment was applied. The plants were grown for 7-36 days (d) in a greenhouse with an approximate 14-hour (h) photoperiod which was maintained at about 23° C. during the day and 22° C. during the night. Nutrients and water were added on a regular basis and supplemental lighting was provided with overhead metal halide 1000-Watt lamps as necessary. The plants were employed for testing when they reached the second or third true leaf stage.
(§3) Weighed amounts of technical material were dissolved in a volume of 97:3 volume per volume (v/v) acetone/dimethyl sulfoxide (DMSO) to stock solutions. […] The concentrated stock solutions were diluted with an aqueous mixture of 1.5% v/v of Agri-dex crop oil concentrate to provide the appropriate application rates. Compound requirements are based upon a 12 milliliter (mL) application volume at a rate of 187 liters per hectare (L/ha). Stocks solutions of the safeners were prepared following the same procedure. Spray solutions of the safeners and experimental compound mixtures were prepared by adding the stock solutions to the appropriate amount of dilution solution to form a 12 mL spray solution in two-way combinations. Formulated compounds were applied to the plant material with an overhead Mandel track sprayer equipped with 8002E nozzles calibrated to deliver 187 L/ha over an application area of 0.503 square meters (m^2) at a spray height of 18 inches (43 centimeters (cm)) above average plant canopy. Control plants were sprayed in the same manner with the solvent blank. All herbicide application (component a) rates are in g ae/ha and all safener (component b) rates are in g ai/ha.
(§4) The treated plants and control plants were placed in a greenhouse as described above and watered by sub-irrigation to prevent wash-off of the test compounds. After 20-22 d, the condition of the test plants as compared with that of the control plants was determined visually and scored on a scale of 0 to 100 percent where 0 corresponds to no injury and 100 corresponds to complete kill. […] Colby's equation was used to determine the herbicidal effects expected from the mixtures. […]

[6] = system: bird's-eye speedwell (VERPE); assay: Postemergence greenhouse trial, % visual injury on bird's-eye speedwell; type: in vivo, Veronica persica; settings: VERPE; for % visual injury, Ob: CQC-m 0 g/ha
Method: as §2, §3, §4

[7] = system: wild mustard (SINAR); assay: Postemergence greenhouse trial, % visual injury on wild mustard; type: in vivo, Sinapis arvensis; settings: SINAR; for % visual injury, Ob: CQC-m 0 g/ha
Outline: as §1

[8] = compound 8 4.380 + CQC-m 0 g/ha

COC(=O)c1nc(-c2ccc3cc[nH]c3c2F)c(F)c(N)c1OC [compound 12]
pest or weed control at 4.38 g/ha ([1]; Bassia scoparia, post-emergence, compound 4.380 g/ha, CQC-m 0, read-out: % visual injury, Ob): 15%
pest or weed control at 8.75 g/ha ([1]; Bassia scoparia, post-emergence, compound 8.75 g/ha, CQC-m 0, read-out: % visual injury, Ob): 62%
pest or weed control at 17.5 g/ha ([1]; Bassia scoparia, post-emergence, compound 17.5 g/ha, CQC-m 0, read-out: % visual injury, Ob): 82%
pest or weed control at 35 g/ha ([1]; Bassia scoparia, post-emergence, compound 35 g/ha, CQC-m 0, read-out: % visual injury, Ob): 95%
pest or weed control at 70 g/ha ([1]; Bassia scoparia, post-emergence, compound 70 g/ha, CQC-m 0, read-out: % visual injury, Ob): 95%
% visual injury, Ob ([2]; compound 4.380 g/ha, CQC-m 0): 18%
% visual injury, Ob ([2]; compound 8.75 g/ha, CQC-m 0): 23%
% visual injury, Ob ([2]; compound 17.5 g/ha, CQC-m 0): 37%
% visual injury, Ob ([2]; compound 35 g/ha, CQC-m 0): 47%
% visual injury, Ob ([2]; compound 70 g/ha, CQC-m 0): 60%
pest or weed control at 4.38 g/ha ([3]; Chenopodium album, post-emergence, compound 4.380 g/ha, CQC-m 0, read-out: % visual injury, Ob): 40%
pest or weed control at 8.75 g/ha ([3]; Chenopodium album, post-emergence, compound 8.75 g/ha, CQC-m 0, read-out: % visual injury, Ob): 50%
pest or weed control at 17.5 g/ha ([3]; Chenopodium album, post-emergence, compound 17.5 g/ha, CQC-m 0, read-out: % visual injury, Ob): 72%
pest or weed control at 35 g/ha ([3]; Chenopodium album, post-emergence, compound 35 g/ha, CQC-m 0, read-out: % visual injury, Ob): 88%
pest or weed control at 70 g/ha ([3]; Chenopodium album, post-emergence, compound 70 g/ha, CQC-m 0, read-out: % visual injury, Ob): 91%
pest or weed control at 4.38 g/ha ([4]; Papaver rhoeas, post-emergence, compound 4.380 g/ha, CQC-m 0, read-out: % visual injury, Ob): 90%
pest or weed control at 8.75 g/ha ([4]; Papaver rhoeas, post-emergence, compound 8.75 g/ha, CQC-m 0, read-out: % visual injury, Ob): 93%
pest or weed control at 17.5 g/ha ([4]; Papaver rhoeas, post-emergence, compound 17.5 g/ha, CQC-m 0, read-out: % visual injury, Ob): 95%
pest or weed control at 35 g/ha ([4]; Papaver rhoeas, post-emergence, compound 35 g/ha, CQC-m 0, read-out: % visual injury, Ob): 100%
pest or weed control at 70 g/ha ([4]; Papaver rhoeas, post-emergence, compound 70 g/ha, CQC-m 0, read-out: % visual injury, Ob): 100%
% visual injury, Ob ([5]; compound 4.380 g/ha): 60%
% visual injury, Ob ([5]; compound 8.75 g/ha): 75%
% visual injury, Ob ([5]; compound 17.5 g/ha): 80%
% visual injury, Ob ([5]; compound 35 g/ha): 90%
% visual injury, Ob ([5]; compound 70 g/ha): 97%

COC(=O)c1nc(-c2ccc3cc[nH]c3c2F)c(F)c(N)c1Cl [compound 8]
% visual injury, observed (Ob) [1, 8]: 69%
% visual injury, observed (Ob) ([1]; compound 8 8.75 + CQC-m 0 g/ha): 77%
% visual injury, observed (Ob) ([1]; compound 8 17.5 + CQC-m 0 g/ha): 81%
% visual injury, observed (Ob) ([1]; compound 8 35 + CQC-m 0 g/ha): 95%
% visual injury, observed (Ob) ([1]; compound 8 70 + CQC-m 0 g/ha): 95%
% visual injury, observed (Ob) [2, 8]: 12%
% visual injury, observed (Ob) ([2]; compound 8 8.75 + CQC-m 0 g/ha): 18%
% visual injury, observed (Ob) ([2]; compound 8 17.5 + CQC-m 0 g/ha): 31%
% visual injury, observed (Ob) ([2]; compound 8 35 + CQC-m 0 g/ha): 43%
% visual injury, observed (Ob) ([2]; compound 8 70 + CQC-m 0 g/ha): 53%
% visual injury, observed (Ob) [6, 8]: 83%
% visual injury, observed (Ob) ([6]; compound 8 8.75 + CQC-m 0 g/ha): 92%
% visual injury, observed (Ob) ([6]; compound 8 17.5 + CQC-m 0 g/ha): 96%
% visual injury, observed (Ob) ([6]; compound 8 35 + CQC-m 0 g/ha): 98%
% visual injury, observed (Ob) ([6]; compound 8 70 + CQC-m 0 g/ha): 100%
% visual injury, observed (Ob) [7, 8]: 76%
% visual injury, observed (Ob) ([7]; compound 8 8.75 + CQC-m 0 g/ha): 82%
% visual injury, observed (Ob) ([7]; compound 8 17.5 + CQC-m 0 g/ha): 96%
% visual injury, observed (Ob) ([7]; compound 8 35 + CQC-m 0 g/ha): 99%
% visual injury, observed (Ob) ([7]; compound 8 70 + CQC-m 0 g/ha): 98%
% visual injury, observed (Ob) [3, 8]: 86%
% visual injury, observed (Ob) ([3]; compound 8 8.75 + CQC-m 0 g/ha): 92%
% visual injury, observed (Ob) ([3]; compound 8 17.5 + CQC-m 0 g/ha): 99%
% visual injury, observed (Ob) ([3]; compound 8 35 + CQC-m 0 g/ha): 100%
% visual injury, observed (Ob) ([3]; compound 8 70 + CQC-m 0 g/ha): 100%
% visual injury, observed (Ob) [4, 8]: 97%
% visual injury, observed (Ob) ([4]; compound 8 8.75 + CQC-m 0 g/ha): 99%
% visual injury, observed (Ob) ([4]; compound 8 17.5 + CQC-m 0 g/ha): 100%
% visual injury, observed (Ob) ([4]; compound 8 35 + CQC-m 0 g/ha): 100%
% visual injury, observed (Ob) ([4]; compound 8 70 + CQC-m 0 g/ha): 100%

COc1c(C(=O)O)nc(-c2ccc3cc[nH]c3c2F)c(F)c1N [compound 13]
% visual injury, Ob ([1]; compound 4.375 g/ha): 55%
% visual injury, Ob ([1]; compound 8.75 g/ha): 84%
% visual injury, Ob ([1]; compound 17.5 g/ha): 89%
% visual injury, Ob ([1]; compound 35 g/ha): 92%
% visual injury, Ob ([1]; compound 70 g/ha): 93%
% visual injury, Ob ([2]; compound 4.375 g/ha, CQC-m 0 g/ha): 30%
% visual injury, Ob ([2]; compound 8.75 g/ha, CQC-m 0 g/ha): 38%
% visual injury, Ob ([2]; compound 17.5 g/ha, CQC-m 0 g/ha): 55%
% visual injury, Ob ([2]; compound 35 g/ha, CQC-m 0 g/ha): 64%
% visual injury, Ob ([2]; compound 70 g/ha, CQC-m 0 g/ha): 73%
% visual injury, Ob ([6]; compound 4.375 g/ha): 85%
% visual injury, Ob ([6]; compound 8.75 g/ha): 93%
% visual injury, Ob ([6]; compound 17.5 g/ha): 98%
% visual injury, Ob ([6]; compound 35 g/ha): 98%
% visual injury, Ob ([6]; compound 70 g/ha): 100%
% visual injury, Ob ([7]; compound 4.375 g/ha): 95%
% visual injury, Ob ([7]; compound 8.75 g/ha): 100%
% visual injury, Ob ([7]; compound 17.5 g/ha): 100%
% visual injury, Ob ([7]; compound 35 g/ha): 100%
% visual injury, Ob ([7]; compound 70 g/ha): 100%
% visual injury, Ob ([4]; compound 4.375 g/ha): 90%
% visual injury, Ob ([4]; compound 8.75 g/ha): 100%
% visual injury, Ob ([4]; compound 17.5 g/ha): 100%
% visual injury, Ob ([4]; compound 35 g/ha): 100%
% visual injury, Ob ([4]; compound 70 g/ha): 100%
